Assay results as given in the NIST ThermoML archive (doi:10.1021/je400415r).
± gives the expanded uncertainty stated by the source.

Test: mn = molality of the nth substance listed, in mol/kg
Conditions: 101 kPa, Liquid; for speed of sound: Pulse-echo method; for mass density: Vibrating tube method

NCC(=O)O [2-aminoacetic acid] + O
Conditions | mass density, 288.15 K [kg/m3] | mass density, 298.15 K [kg/m3] | mass density, 308.15 K [kg/m3] | mass density, 318.15 K [kg/m3] | speed of sound, 288.15 K [m/s] | speed of sound, 298.15 K [m/s] | speed of sound, 308.15 K [m/s] | speed of sound, 318.15 K [m/s]
m1 = 0.04998 | 1000.77 ± 0.042 | 998.679 ± 0.043 | 995.632 ± 0.045 | 991.792 ± 0.048 | 1469.2 ± 0.78 | 1499.4 ± 0.78 | 1522.2 ± 0.77 | 1538.6 ± 0.77
m1 = 0.1399 | 1003.74 ± 0.043 | 1001.58 ± 0.043 | 998.484 ± 0.044 | 994.608 ± 0.047 | 1474.3 ± 0.79 | 1504.2 ± 0.78 | 1526.8 ± 0.77 | 1543 ± 0.77
m1 = 0.2276 | 1006.6 ± 0.045 | 1004.38 ± 0.044 | 1001.24 ± 0.044 | 997.323 ± 0.046 | 1479.2 ± 0.79 | 1508.8 ± 0.78 | 1531.1 ± 0.77 | 1547.1 ± 0.77
m1 = 0.4056 | 1012.27 ± 0.048 | 1009.94 ± 0.047 | 1006.71 ± 0.047 | 1002.72 ± 0.046 | 1488.9 ± 0.79 | 1517.9 ± 0.79 | 1539.7 ± 0.78 | 1555.4 ± 0.77
m1 = 0.5835 | 1017.82 ± 0.051 | 1015.36 ± 0.05 | 1012.04 ± 0.05 | 1007.99 ± 0.049 | 1498.4 ± 0.79 | 1526.8 ± 0.79 | 1548.2 ± 0.78 | 1563.5 ± 0.78
m1 = 0.7602 | 1023.19 ± 0.054 | 1020.62 ± 0.053 | 1017.22 ± 0.053 | 1013.1 ± 0.052 | 1507.6 ± 0.79 | 1535.4 ± 0.79 | 1556.3 ± 0.78 | 1571.3 ± 0.78
m1 = 0.9386 | 1028.48 ± 0.057 | 1025.81 ± 0.056 | 1022.32 ± 0.056 | 1018.13 ± 0.055 | 1516.7 ± 0.79 | 1543.9 ± 0.79 | 1564.4 ± 0.78 | 1579 ± 0.78
m1 = 1.117 | 1033.62 ± 0.06 | 1030.85 ± 0.059 | 1027.28 ± 0.059 | 1023.04 ± 0.057 | 1525.5 ± 0.8 | 1552.2 ± 0.8 | 1572.2 ± 0.79 | 1586.4 ± 0.79
m1 = 1.296 | 1038.69 ± 0.063 | 1035.81 ± 0.062 | 1032.17 ± 0.062 | 1027.84 ± 0.06 | 1534.1 ± 0.8 | 1560.3 ± 0.8 | 1579.8 ± 0.79 | 1593.7 ± 0.79

CCC(N)C(=O)O (stereo not drawn) [(.+-.)-α-aminobutyric acid] + O
Conditions | mass density, 288.15 K [kg/m3] | mass density, 298.15 K [kg/m3] | mass density, 308.15 K [kg/m3] | mass density, 318.15 K [kg/m3] | speed of sound, 288.15 K [m/s] | speed of sound, 298.15 K [m/s] | speed of sound, 308.15 K [m/s] | speed of sound, 318.15 K [m/s]
m1 = 0.04996 | 1000.54 ± 0.041 | 998.441 ± 0.042 | 995.405 ± 0.045 | 991.565 ± 0.048 | 1470.8 ± 0.78 | 1500.8 ± 0.78 | 1523.5 ± 0.77 | 1539.8 ± 0.77
m1 = 0.1498 | 1003.36 ± 0.043 | 1001.19 ± 0.042 | 998.105 ± 0.044 | 994.226 ± 0.047 | 1479.5 ± 0.79 | 1508.9 ± 0.78 | 1530.9 ± 0.77 | 1546.7 ± 0.77
m1 = 0.2141 | 1005.15 ± 0.044 | 1002.92 ± 0.043 | 999.815 ± 0.043 | 995.911 ± 0.046 | 1485.2 ± 0.79 | 1513.8 ± 0.78 | 1535.7 ± 0.77 | 1551.1 ± 0.77
m1 = 0.4366 | 1011.15 ± 0.047 | 1008.79 ± 0.047 | 1005.56 ± 0.047 | 1001.57 ± 0.046 | 1504.2 ± 0.79 | 1531.5 ± 0.79 | 1551.8 ± 0.78 | 1566 ± 0.78
m1 = 0.6599 | 1016.91 ± 0.051 | 1014.4 ± 0.05 | 1011.06 ± 0.05 | 1006.99 ± 0.049 | 1522.7 ± 0.79 | 1548.4 ± 0.79 | 1567.4 ± 0.78 | 1580.5 ± 0.78
m1 = 0.8834 | 1022.42 ± 0.055 | 1019.77 ± 0.054 | 1016.34 ± 0.053 | 1012.18 ± 0.052 | 1540.7 ± 0.8 | 1564.9 ± 0.79 | 1582.6 ± 0.79 | 1594.5 ± 0.79
m1 = 1.106 | 1027.68 ± 0.058 | 1024.9 ± 0.058 | 1021.35 ± 0.057 | 1017.13 ± 0.056 | 1558 ± 0.8 | 1580.7 ± 0.8 | 1597.2 ± 0.79 | 1608 ± 0.79
m1 = 1.33 | 1032.73 ± 0.062 | 1029.83 ± 0.061 | 1026.17 ± 0.06 | 1021.87 ± 0.059 | 1574.8 ± 0.8 | 1596.1 ± 0.8 | 1611.3 ± 0.8 | 1621 ± 0.8
m1 = 1.552 | 1037.55 ± 0.066 | 1034.52 ± 0.065 | 1030.77 ± 0.064 | 1026.4 ± 0.063 | 1590.9 ± 0.81 | 1610.8 ± 0.81 | 1624.8 ± 0.81 | 1633.5 ± 0.81
m1 = 1.774 | 1042.19 ± 0.07 | 1039.05 ± 0.069 | 1035.2 ± 0.068 | 1030.74 ± 0.066 | 1606.6 ± 0.82 | 1625.1 ± 0.82 | 1637.8 ± 0.81 | 1645.5 ± 0.81
m1 = 1.998 | 1046.67 ± 0.074 | 1043.4 ± 0.072 | 1039.51 ± 0.071 | 1034.95 ± 0.07 | 1621.7 ± 0.82 | 1638.9 ± 0.82 | 1650.5 ± 0.82 | 1657.1 ± 0.82
